Some test systems named below: LXFL 529 NSCLC; KM20L2 colon; HOP-18 NSCLC; XF 498 CNS; DMS 114 small cell lung; DLD-1 colon; RXF-631 renal; SNB-78 CNS; MDA-N.
Assay in all cases: NCI-60 cell line screen, 48 h

Each structure is given as a SMILES string. Values joined by “and” are separate entries in the source; they are usually repeats but may differ in a detail not shown here. Equal entries are not always repeated.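 Cells were grown in 96-well plates and exposed to each compound for 48 hours at five concentrations; endpoints were interpolated linearly between bracketing concentrations, or set to the highest concentration if not reached. At the GI50, growth is halved. Definition used: TGI = concentration required for complete inhibition of growth.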

As to `OCC(O)COc1c(Cl)cc(Cl)cc1Cl` (stereo not drawn), the TGI with LXFL 529 NSCLC, in the assay with KM20L2 colon, in the assay on HOP-18 NSCLC, with XF 498 CNS, in the assay on DMS 114 small cell lung and with DLD-1 colon was over 100 µM in each case. Further, the TGI in the assay with RXF-631 renal and in the assay on SNB-78 CNS was over 100 µM in each case.

For `Cc1cn([C@H]2C[C@H](O)[C@@H](CO)O2)c(=O)nc1N`, the TGI with MDA-N is over 100 µM.

With `c1ccc2c(c1)Sc1ccccc1N2C1CN2CCC1CC2` (stereo not drawn), the TGI was determined as 30.6 µM in the assay on LXFL 529 NSCLC; 30.2 µM with KM20L2 colon; 47.5 µM with HOP-18 NSCLC; 28.8 µM in the assay on XF 498 CNS; 35.3 µM in the assay with DMS 114 small cell lung; 29.6 µM in the assay with DLD-1 colon. The same molecule registered a TGI in the assay on SNB-78 CNS of 30 µM.

For the molecule `Nc1c(C(=O)NC23CC4CC(CC(C4)C2)C3)[n+]([O-])c2ccccc2[n+]1[O-]`, the TGI in the assay with LXFL 529 NSCLC, in the assay on KM20L2 colon, in the assay with HOP-18 NSCLC, in the assay with XF 498 CNS, with DLD-1 colon and in the assay with SNB-78 CNS was over 100 µM throughout.

Regarding `Cn1nc2ccc3nccc(NCCNCCO)c3c2n1`, the TGI with LXFL 529 NSCLC, with KM20L2 colon, in the assay on XF 498 CNS, in the assay with DLD-1 colon and in the assay with SNB-78 CNS was over 100 µM each time.

Turning to `CCOc1cc2c(=O)oc3c(OC)ccc4ccc(c1OC)c2c43`, in the assay on MDA-N, the TGI is over 100 µM.

In the case of `C[N+](C)(C)CC(=O)N/N=C(/Cc1nc2ccc([N+](=O)[O-])cc2[nH]c1=O)C(=O)Nc1cc(C(F)(F)F)ccc1Cl`, the TGI in the assay with KM20L2 colon, in the assay with DMS 114 small cell lung, in the assay with DLD-1 colon and with RXF-631 renal was over 100 µM in each case.

As to `CCCCCCCCCCCCCCCC(=O)OCC1OC(OC)C(NC(=O)N(CCCl)N=O)C(O)C1O` (stereo not drawn), the TGI in the assay on LXFL 529 NSCLC was 37.4 µM; with KM20L2 colon, 58.4 µM; with HOP-18 NSCLC, over 100 µM; with XF 498 CNS, 25.7 µM; in the assay with DMS 114 small cell lung, 46.4 µM; in the assay with MDA-N, 32 µM. Further, the TGI was 37.9 µM in the assay on DLD-1 colon and over 85.5 µM in the assay with SNB-78 CNS.

`COc1ccc(OC(C)C(=O)O)c2c1CCCC2=O` (stereo not drawn): the TGI in the assay with LXFL 529 NSCLC, in the assay on KM20L2 colon, in the assay on XF 498 CNS, in the assay on DMS 114 small cell lung, in the assay on DLD-1 colon and with SNB-78 CNS was over 100 µM throughout.

`O=C(/C=C/c1ccccc1O)c1cccc2ccccc12`: the TGI is over 100 µM in the assay with LXFL 529 NSCLC; over 100 µM with KM20L2 colon; over 100 µM with HOP-18 NSCLC; over 100 µM in the assay with XF 498 CNS; over 92.2 µM in the assay with DMS 114 small cell lung; over 100 µM in the assay with DLD-1 colon. For the same molecule, the TGI with RXF-631 renal and in the assay with SNB-78 CNS was over 100 µM throughout.

On to `Cc1ccc(NC(=O)/C(=N/NC(=O)C[N+](C)(C)C)c2nc3ccccc3[nH]c2=O)cc1`, for which the TGI with LXFL 529 NSCLC, in the assay on KM20L2 colon, with HOP-18 NSCLC, in the assay with DMS 114 small cell lung, in the assay with DLD-1 colon and in the assay on RXF-631 renal was over 100 µM throughout. The molecule further gave a TGI in the assay with SNB-78 CNS of over 100 µM.

As for `O=C1CCNC(=O)NC1`, the TGI in the assay with LXFL 529 NSCLC, in the assay with KM20L2 colon, in the assay with HOP-18 NSCLC, with XF 498 CNS, in the assay with DMS 114 small cell lung and with DLD-1 colon was over 100 µM throughout. For the same molecule, the TGI in the assay on RXF-631 renal and with SNB-78 CNS was over 100 µM in each case.

For the molecule `C[N+](C)(C)CC(CC(=O)[O-])C1CC1` (stereo not drawn), the TGI in the assay with LXFL 529 NSCLC, with KM20L2 colon, with HOP-18 NSCLC, in the assay with XF 498 CNS, in the assay on DMS 114 small cell lung and in the assay with RXF-631 renal was over 100 µM each time.

As for `Cc1ccc(/C=C/C(=O)c2ccc([N+](=O)[O-])cc2)cc1`, the TGI in the assay on LXFL 529 NSCLC, in the assay on KM20L2 colon, with HOP-18 NSCLC, with XF 498 CNS, in the assay on DLD-1 colon and in the assay with RXF-631 renal was over 100 µM throughout. Moreover, in the assay with SNB-78 CNS, the TGI was over 100 µM.

Molecule `CCCC(C)c1c(Cl)nc(Cl)nc1Cl` (stereo not drawn) yielded a TGI in the assay with MDA-N of 21 µM.

Consider `O=C1/C(=C/c2ccc(Cl)cc2)CCC1CN1CCOCC1` (stereo not drawn), for which the TGI in the assay with LXFL 529 NSCLC was determined as 6.88 µM; in the assay on KM20L2 colon, 29.1 µM; in the assay with HOP-18 NSCLC, 29.7 µM; in the assay on XF 498 CNS, 4.97 µM; in the assay on DMS 114 small cell lung, 70.2 µM; with MDA-N, 18.4 µM. The TGI with DLD-1 colon is 11.3 µM; in the assay on RXF-631 renal, over 62.5 µM; with SNB-78 CNS it was 48.9 µM.

Turning to `O=C1C(Br)=C(Br)C(=O)c2ccccc21`, the GI50 in the assay on LXFL 529 NSCLC was 19.2 µM and 5.82 µM; in the assay on XF 498 CNS, 15.1 µM and 2.98 µM; in the assay with DMS 114 small cell lung, 17.6 µM and 1.91 µM; in the assay on SNB-78 CNS, 26.5 µM and 7.52 µM. Further, the TGI is 34 µM and 11.7 µM in the assay with LXFL 529 NSCLC; > 100 µM and 32.1 µM in the assay with KM20L2 colon; 35.5 µM in the assay on HOP-18 NSCLC; 29.7 µM and 9.41 µM in the assay with XF 498 CNS; 34.9 µM and 6.91 µM with DMS 114 small cell lung; 11.4 µM in the assay with MDA-N. In addition, the TGI in the assay on DLD-1 colon is 35.2 µM and 67.5 µM; in the assay with RXF-631 renal it was 20.1 µM; in the assay on SNB-78 CNS, 48.9 µM and 18.4 µM.

`CN(C(=O)C12C3C4C1C1C2C3C41C(O)C(C)(C)C)C(C)(C)C` (stereo not drawn): the TGI in the assay with LXFL 529 NSCLC, with KM20L2 colon, in the assay on XF 498 CNS, in the assay with DMS 114 small cell lung, in the assay with DLD-1 colon and in the assay on RXF-631 renal was over 100 µM in each case. In the assay on SNB-78 CNS, this molecule registered a TGI of over 100 µM.

As for `C=C1CCC2C(C)(CO)C(O)CCC2(C)C1C/C=C1/CCOC1=O` (stereo not drawn), the TGI in the assay on LXFL 529 NSCLC, in the assay with KM20L2 colon, with HOP-18 NSCLC and in the assay with DLD-1 colon was over 100 µM in each case.

Regarding `CCOC(=O)C(=O)Nc1ccccc1OCC`, the TGI in the assay on LXFL 529 NSCLC, in the assay with HOP-18 NSCLC, in the assay on XF 498 CNS, in the assay on DMS 114 small cell lung, in the assay with DLD-1 colon and with SNB-78 CNS was over 100 µM each time.

With `ClC1c2ccccc2C2(c3ccccc3)OOC1(c1ccccc1)O2` (stereo not drawn), the figures for the TGI in the assay with KM20L2 colon, in the assay with DMS 114 small cell lung and with SNB-78 CNS were 3.26 µM, 0.725 µM and 3.19 µM, respectively.

For `CCOc1ccc(NCC2CC/C(=C\c3ccc(Cl)cc3)C2=O)cc1` (stereo not drawn), the TGI in the assay with LXFL 529 NSCLC is 25.8 µM; in the assay on KM20L2 colon, over 55.8 µM; in the assay on HOP-18 NSCLC, 54.6 µM; with XF 498 CNS, 37.1 µM; with DMS 114 small cell lung it was over 58.9 µM; with DLD-1 colon it was 26.6 µM. Further, the TGI in the assay on SNB-78 CNS was over 100 µM.

For the molecule `COc1cc(C(O)C(=O)c2cnc3cc([N+](=O)[O-])ccc3n2)ccc1O` (stereo not drawn), the TGI in the assay on LXFL 529 NSCLC, with KM20L2 colon, in the assay on XF 498 CNS, in the assay on DMS 114 small cell lung, with DLD-1 colon and with RXF-631 renal was over 100 µM each time.

In the assay on MDA-N, `CC[C@H]1CN(C)[C@H]2Cc3c([nH]c4ccccc34)C(=O)C[C@H]1C2C(=O)OC` (stereo partly drawn) yielded a TGI of over 100 µM.

In the case of `CC(O)C(NC(=O)c1ccccc1)C(=O)N(Cc1ccccc1)Cc1ccccc1` (stereo not drawn), the TGI in the assay on LXFL 529 NSCLC, in the assay on KM20L2 colon, with HOP-18 NSCLC, in the assay with XF 498 CNS, in the assay with DMS 114 small cell lung and with DLD-1 colon was over 100 µM throughout. The TGI in the assay on RXF-631 renal and in the assay with SNB-78 CNS was over 100 µM in each case.

`Oc1ccc2ccccc2c1N=Nc1ccc(Cl)cc1` gave a TGI in the assay on MDA-N of over 100 µM.

Take `CC(C)C[CH2][Ge]([CH2]CC(C)C)([CH2]CC(C)C)[CH2]CC(C)C`: in the assay with MDA-N, the GI50 is over 100 µM and the TGI was over 100 µM.

For `CNc1ccc([N+](=O)[O-])c2c(NCCCN(C)C)ccnc12`, the TGI with KM20L2 colon, in the assay with XF 498 CNS, in the assay with DMS 114 small cell lung and in the assay with SNB-78 CNS was over 100 µM in each case.

For `CC#CC#C/C=C1\C=CC2(OC=CC2OC(C)=O)O1` (stereo not drawn), the TGI in the assay with LXFL 529 NSCLC came to 32.2 µM; in the assay with KM20L2 colon, 10.2 µM; in the assay on XF 498 CNS it was 37.7 µM; in the assay on DMS 114 small cell lung it was 45.6 µM; in the assay on MDA-N, 30.1 µM; with DLD-1 colon it was 34.3 µM. The figures for the TGI with RXF-631 renal and with SNB-78 CNS were 33.1 µM and 18.7 µM, respectively.

In the case of `N#Cc1cc([N+](=O)[O-])ccc1NC(=O)C(=O)C(C(=O)c1ccc2ccccc2c1)C1OCc2ccccc21` (stereo not drawn), the TGI in the assay on LXFL 529 NSCLC turned out to be 13.7 µM; in the assay with KM20L2 colon, 42.6 µM; in the assay on DMS 114 small cell lung it was 29.7 µM; with DLD-1 colon, 54.2 µM; in the assay with RXF-631 renal, 37.5 µM; in the assay with SNB-78 CNS, 35.2 µM.

`COc1cc(/C=C/C(=N\NC(=S)NN)c2sc(NNC(C)=O)nc2C)ccc1O`: the TGI with MDA-N was over 100 µM.

In the case of `NC(CCc1ncc(-c2ccccc2)s1)C(=O)O` (stereo not drawn), the TGI in the assay with LXFL 529 NSCLC, in the assay with HOP-18 NSCLC, in the assay on DMS 114 small cell lung, with DLD-1 colon, in the assay on RXF-631 renal and in the assay on SNB-78 CNS was over 100 µM each time.

With `CC(=O)OCCOCNC(=S)N/N=C(\C)c1cccs1`, the TGI in the assay on LXFL 529 NSCLC, with KM20L2 colon, in the assay with HOP-18 NSCLC, in the assay on XF 498 CNS, in the assay on DMS 114 small cell lung and in the assay on DLD-1 colon was over 100 µM in each case. Further, the TGI with SNB-78 CNS was over 100 µM.

As for `CCCC(=O)c1ccc(=O)n(C)c1`, the TGI in the assay with LXFL 529 NSCLC, in the assay on KM20L2 colon, in the assay with XF 498 CNS, in the assay with DMS 114 small cell lung, in the assay on DLD-1 colon and in the assay on RXF-631 renal was over 100 µM each time.
